Laboratory results from patent US4435404A, “Carbostyril derivatives” (priority 1980, dated 1984).
pIC50: −log10 of the molar value. Read-outs that look alike come from different tables or passages of the source.

Key:
Acute Toxicity Test = conditions: mouse, in vivo; male mice, oral administration
Protocol: The test compounds were administered orally to the mice and LD50 (mg/kg) of the compounds was determined.

[1] = tested on: ADP-induced aggregation in rabbit platelet; test: Inhibition effect on ADP-induced aggregation in rabbit platelet; type: cell-based; conditions: Oryctolagus cuniculus, Platelet; for inhibition at 100 µM: concentration of the test compound solution 10^-4 mole
Protocol: (§1) The platelet aggregation inhibitory effect is measured by using AG-II aggregometer (manufactured by Bryston Manufacturing Co.). The blood sample used for the test is a 1/9 (by volume) mixture of sodium citrate and whole blood collected from rabbit. Said sample is subjected to 10-minute centrifugal separation at 1,000 r.p.m. to obtain a platelet rich plasma (PRP). The thus obtained PRP is separated, and the remaining blood sample is further subjected to 15-minute centrifugal separation at 3,000 r.p.m. to obtain a platelet poor plasma (PPP).
(§2) The number of platelets in the PRP is counted by the Brecher-Clonkite Method, and the PRP is diluted with the PPP to prepare a PRP sample with platelet concentration of 300,000/mm^3 for the adenosine diphosphate (ADP)-induced aggregation test. There is also prepared a PRP sample with platelet concentration of 450,000/mm^3 for the collagen-induced aggregation test.
(§3) 0.6 Milliliter of said PRP sample is added into 0.01 ml of a solution of a test compound of a predetermined concentration and the mixture is placed in a 37° C. thermostat for one minute. Then 0.07 ml of an ADP or collagen solution is added to the mixture. Transmittance of this mixture is determined and the change of transmittance is recorded by using the aggregometer at stirrer speed of 1,100 r.p.m. […] The ADP solution is adjusted to a concentration of 7.5×10^-5 M, and the collagen solution is prepared by triturating 100 mg of collagen with 5 ml of said buffer and the supernatant is used as collagen inducer. Acetylsalicylic acid is used as control for the ADP-induced aggregation test and the collagen-induced aggregation test, respectively. The platelet aggregation inhibitory effect is measured in terms of percent inhibition with respect to the aggregation rate of the controls. The aggregation rate is calculated from the following formula:
(§4) Aggregation rate=[(c-a)/(b-a)]×100
(§5) b: transmittance of PRP containing a test compound and an aggregation inducer

[2] = molecular target: T1, cyclic AMP phosphodiesterase (Oryctolagus cuniculus, UniProt G1ST54); test: Obstructive action against cyclic AMP phosphodiesterase; type: biochemical; conditions: rabbit platelet enzyme, 30° C., 20 minutes
T1 construct: the supernatant was collected to use it as a crude enzyme solution; from tissue; host or cells: rabbit platelets (from platelet-rich plasma)
T1 sequence (G1ST54 1-1128): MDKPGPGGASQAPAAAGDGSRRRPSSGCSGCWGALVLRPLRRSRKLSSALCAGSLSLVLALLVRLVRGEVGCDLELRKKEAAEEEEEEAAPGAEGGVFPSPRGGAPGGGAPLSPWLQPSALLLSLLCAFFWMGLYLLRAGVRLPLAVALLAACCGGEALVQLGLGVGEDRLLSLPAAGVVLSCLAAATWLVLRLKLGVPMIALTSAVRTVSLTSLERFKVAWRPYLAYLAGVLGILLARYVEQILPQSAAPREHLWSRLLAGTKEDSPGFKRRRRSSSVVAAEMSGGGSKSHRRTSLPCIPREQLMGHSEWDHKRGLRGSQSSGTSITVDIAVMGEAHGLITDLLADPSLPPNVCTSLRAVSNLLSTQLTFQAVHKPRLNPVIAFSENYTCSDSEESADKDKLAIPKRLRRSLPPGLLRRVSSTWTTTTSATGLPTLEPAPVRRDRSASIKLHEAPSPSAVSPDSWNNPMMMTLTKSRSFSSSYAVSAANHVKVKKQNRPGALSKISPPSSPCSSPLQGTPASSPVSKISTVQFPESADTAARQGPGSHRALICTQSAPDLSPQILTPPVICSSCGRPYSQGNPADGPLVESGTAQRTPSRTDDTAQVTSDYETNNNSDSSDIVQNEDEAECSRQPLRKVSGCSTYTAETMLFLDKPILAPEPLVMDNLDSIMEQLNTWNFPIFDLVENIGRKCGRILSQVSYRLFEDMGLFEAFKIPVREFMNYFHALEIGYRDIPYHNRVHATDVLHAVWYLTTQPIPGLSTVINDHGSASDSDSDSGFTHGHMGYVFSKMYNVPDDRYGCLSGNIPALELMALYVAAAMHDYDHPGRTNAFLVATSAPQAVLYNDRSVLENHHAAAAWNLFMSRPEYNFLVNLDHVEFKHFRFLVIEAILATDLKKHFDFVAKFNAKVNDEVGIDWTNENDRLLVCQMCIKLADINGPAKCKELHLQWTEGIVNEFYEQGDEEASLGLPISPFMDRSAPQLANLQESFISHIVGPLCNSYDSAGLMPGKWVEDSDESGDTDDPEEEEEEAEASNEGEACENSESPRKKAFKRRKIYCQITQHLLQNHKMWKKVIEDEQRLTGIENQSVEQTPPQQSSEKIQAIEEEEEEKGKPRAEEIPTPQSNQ
Protocol: That is, for determining the obstructive activity against cyclic AMP phosphodiesterase, 10 ml of a solution obtained by adding 1 mmol of MgCl2 into 50 mmol of tris-hydrochloric acid buffer with pH 7.4 was added to the platelets obtained by further centrifuging the above-said rabbit PRP at 3,000 r.p.m. for 10 minutes, and the suspended platelets were ground by a Teflon potter type homogenizer. This was followed by two times of freezing and thawing treatment and 300-second fracturing with 200 watt supersonic waves. After additional 60-minute centrifugation with 100,000 G, the supernatant was collected to use it as a crude enzyme solution.
10 Milliliters of this crude buffer solution was added to a 1.5×20 cm DEAE-cellulose column which has previously been buffered with 50 mM of tris-acetate buffer (pH 6.0), followed by washing and elution with 30 ml of 50 mM tris-acetate buffer, and this buffer solution was subjected to linear gradient elution with 0 to 0.5 moles of sodium acetate-tris-acetatebuffer (total amount of elute was 300 ml.). The flow rate was 0.5 ml/min, and 5 ml of each fraction was batched out. […] This fraction was used as cyclic AMP phosphodiesterase.
0.1 Milliliter of an aqueous solution of each test compound of a specified concentration was mixed with 40 mmol of tris-hydrochloric acid buffer (pH 8.0, containing 50 μg of cow serum albumin and 4 mmol of MgCl2) containing predetermined 1.0 μmol of cyclic AMP (tritium cyclic AMP), and 0.2 ml of this mixed solution was used as substrate solution.
0.2 Milliliter of the above-prepared cyclic AMP phosphodiesterase of a predetermined concentration was added to said substrate solution and the mixture was reacted at 30° C. for 20 minutes, producing tritium 5'-AMP from the tritium cyclic AMP.
The reaction system was then immersed in boiling water for 2 minutes to stop the reaction, and then this reaction solution was cooled in ice water and, for converting the produced tritium 5'-AMP into tritium adenosine, the solution was added with 0.05 ml (1 mg/ml) of snake poison as 5'-nucleotidase and reacted at 30° C. for 10 minutes. The whole amount of this reaction solution was then added to a cation exchange resin (AG 500 W×4, 200-400 meshes, manufactured by Bio-Rad Co., column size: 0.5×1.5 cm), and the produced tritium anodesine alone was allowed to combine, washed with 6 ml of distilled water and eluted with 1.5 ml of 3 N-ammonia water. The whole quantity of the elutant was added with 10 ml of a triton-toluene type scintillator and the produced tritium adenosine was measured by a liquid scintillation counter to determine the phosphodiesterase activity.
In this way, the phosphodiesterase activation value (Vs) of the test compounds of the respective concentrations was determined, and the phosphodiesterase obstruction rate (%) was determined from said activation value (Vs) and control value (Vc) (obtained from water not containing any test compound) from the following formula: [formula] Known 1-methyl-3-isobutylxanthine was used as control.

[3] = tested on: collagen-induced aggregation in rabbit platelet; test: Inhibition effect on collagen-induced aggregation in rabbit platelet; type: cell-based; conditions: Oryctolagus cuniculus, Platelet, read-out: Inhibition effect on collagen-induced aggregation
Protocol: as §1, §2, §3, §4, §5

Wistar strain male rats = test: Test of increasing effect of heart rate; type: in vivo, rat; conditions: 30 mg/kg oral, 60 minutes after the administration
Protocol: Wistar strain male rats, having 180-230 g of body weight, were abstained from food for 24 hours, the electrocardiograms introduced from the second induction period were recorded on oscillograph. The heart rate was calculated from the electrocardiograms by observing them for 10 seconds several times. […] 60 Minutes after the administration, the heart rate was measured and increasing effect of the heart rate was calculated. Generally, an average heart rate of an usual Wistar strain male rat is about 320 beat/minute.

[4] = concentration of the test compound solution 10^-5 mole, read-out: Inhibition effect on ADP-induced aggregation
[5] = concentration of the test compound solution 10^-6 mole, read-out: Inhibition effect on ADP-induced aggregation
[6] = concentration of the test compound solution 10^-5 mole
[7] = concentration of the test compound solution 10^-6 mole
[8] = read-out: Inhibition effect on ADP-induced aggregation

| Structure (SMILES) | LD50 (Acute Toxicity Test) | inhibition at 100 µM [1] | inhibition at 10 µM [1, 4] | inhibition at 1 µM [1, 5] | pIC50 [2] | inhibition at 10 µM [3, 6] | inhibition at 1 µM [3, 7] | Increasing effect of heart rate (Wistar strain male rats) | inhibition at 0.1 µM [1, 8] | inhibition at 1 µM [1, 8] | inhibition at 10 µM [1, 8] | inhibition at 0.1 µM [3] | inhibition at 1 µM [3] | inhibition at 10 µM [3] |
| --- | --- | --- | --- | --- | --- | --- | --- | --- | --- | --- | --- | --- | --- | --- |
| CN(CC1CCCCO1)C(=O)CCCOc1ccc2[nH]c(=O)ccc2c1 (stereo not drawn) [No. 6, 6-{3-[N-Methyl-N-(2-tetrahydropyranylmethyl)aminocarbonyl]propoxy}carbostyril] | > 1000 mg/kg | 75% | 24.6% | 14.7% | 7.28 | 48.1% | 3.8% | 40 Beat/min. | – | – | – | – | – | – |
| O=C(CCCOc1ccc2[nH]c(=O)ccc2c1)N1CCN(c2ccccc2)CC1 [No. 14, 6-[3-(4-Phenyl-1-piperazinylcarbonyl)propoxy]carbostyril] | > 1000 mg/kg | 100% | 87.7% | 15.7% | 7.28 | 100% | 31% | 32 Beat/min. | – | – | – | – | – | – |
| CN(C(=O)CCCOc1ccc2[nH]c(=O)ccc2c1)C1CCCCC1 [No. 39, 6-[3-(N--Methyl-N--cyclohexylaminocarbonyl)-propoxy]carbostyril, reference compound] | – | – | – | – | 7.80 | – | – | 104 Beat/min. | 32.8% | 62.1% | 91.7% | 57% | 90.2% | 90.5% |
